Key:
HDAC1 = HDAC1 (Homo sapiens, UniProt Q13547); assay: HDAC1 degradation by quantitative western blotting in HCT116 cells; conditions: HCT116 cells, 24 h, 0.1, 1 and 10 μM; compared with 1 at 10 μM
H3K56ac = assay: Histone H3 Lys 56 acetylation (H3K56ac) western blotting; type: cell-based, human; conditions: HCT116 cells, 24 h, screen at 0.1, 1, 10 μM; relative to DMSO, CI-994 and 1 at 10 μM
Excerpt: Supporting Information: Biology
Representative blots of two independent biological replicates.

HDAC2 = HDAC2 (Homo sapiens, UniProt Q92769); assay: HDAC2 degradation by quantitative western blotting in HCT116 cells; conditions: HCT116 cells, 24 h, 0.1, 1 and 10 μM; compared with 1 at 10 μM
HDAC2, sequence (Q92769 whole entry): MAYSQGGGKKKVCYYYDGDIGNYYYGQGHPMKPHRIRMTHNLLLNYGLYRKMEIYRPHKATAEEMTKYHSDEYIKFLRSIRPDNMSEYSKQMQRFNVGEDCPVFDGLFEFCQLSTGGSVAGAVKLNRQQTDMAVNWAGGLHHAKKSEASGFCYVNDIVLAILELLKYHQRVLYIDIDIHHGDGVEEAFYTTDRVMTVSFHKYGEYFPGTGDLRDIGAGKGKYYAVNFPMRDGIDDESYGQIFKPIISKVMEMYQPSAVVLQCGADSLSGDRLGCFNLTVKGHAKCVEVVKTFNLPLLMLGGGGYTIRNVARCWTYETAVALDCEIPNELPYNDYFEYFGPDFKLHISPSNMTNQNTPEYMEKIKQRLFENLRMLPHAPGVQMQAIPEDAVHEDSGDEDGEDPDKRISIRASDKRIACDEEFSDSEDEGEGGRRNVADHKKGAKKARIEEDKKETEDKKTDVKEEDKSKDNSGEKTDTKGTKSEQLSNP
Procedure: Initially, each PROTAC was tested at 0.1, 1, and 10 μM in HCT116 cells for 24 h; then, cell extracts were prepared and evaluated for HDAC1/2 and 3 degradation by quantitative western blotting.
This cell line was incubated at 37 °C with 5% CO2.
HCT116 cells were seeded into 6-well plates (4 × 10^5 cells/well for 24 h, 2 × 10^5 cells/well for 48 h) for 24 h and then treated with DMSO or compounds at the indicated concentrations in fresh medium (5 mL total). After desired treatment time, the cells were harvested and then lysed in lysis buffer (50 mM Tris-HCl, 150 mM NaCl, 0.5% NP-40, 0.5% Triton X-100) supplemented with a protease inhibitor (Sigma, P8340). The suspension was incubated on ice for 30 min and centrifuged (18,000 rcf, 15 min, 4 °C); then, the supernatant was collected, and protein concentrations were quantified via Bradford Assay using Protein Assay Dye Reagent Concentrate (BIO-RAD). […] PageRuler Plus Prestained Ladder was used for size standards. After gel electrophoresis at 140 V for 90 min, the separated proteins were transferred onto a nitrocellulose membrane at 30 V for 60 min. The membranes were probed with primary antibodies (see the Supporting Information) for 60−90 min. Blots were developed with complimentary IRDye-conjugated secondary antibodies, and the bands were visualized using an Odyssey infrared imaging system. Image processing and band intensity quantification were performed using Image Studio Lite.

HDAC1, sequence (Q13547 whole entry): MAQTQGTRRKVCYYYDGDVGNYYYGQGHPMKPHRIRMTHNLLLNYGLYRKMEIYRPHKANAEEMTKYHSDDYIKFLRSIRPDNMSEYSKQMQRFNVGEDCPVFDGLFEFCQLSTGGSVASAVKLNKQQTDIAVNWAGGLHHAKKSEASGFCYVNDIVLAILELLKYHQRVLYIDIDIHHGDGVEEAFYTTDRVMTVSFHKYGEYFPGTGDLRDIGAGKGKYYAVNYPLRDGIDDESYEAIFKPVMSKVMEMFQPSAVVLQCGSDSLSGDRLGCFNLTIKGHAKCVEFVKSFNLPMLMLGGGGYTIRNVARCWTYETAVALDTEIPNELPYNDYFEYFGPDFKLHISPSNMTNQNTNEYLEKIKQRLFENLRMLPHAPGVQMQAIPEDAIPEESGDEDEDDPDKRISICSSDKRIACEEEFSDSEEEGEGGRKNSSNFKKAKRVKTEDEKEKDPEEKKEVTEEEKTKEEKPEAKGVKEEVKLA

SMILES	HDAC1 degradation in initial screen (in words) (HDAC1)	H3K56ac levels (in words) (H3K56ac)	HDAC2 degradation in initial screen (in words) (HDAC2)
CC(=O)NC(C(=O)N1C[C@H](O)C[C@H]1C(=O)NCc1ccc(-c2scnc2C)cc1OCCCCNC(=O)CCCCCCCC(=O)Nc1ccc(C(=O)Nc2ccccc2N)cc1)C(C)(C)C (stereo in doubt) [Compound 24, N1-(4-(2-(((2S,4R)-1-((S)-2-Acetamido-3,3-dimethylbutanoyl)-4-hydroxypyrrolidine-2-carboxamido)methyl)-5-(4-methylthiazol-5-yl)-phenoxy)butyl)-N9-(4-((2-aminophenyl)carbamoyl)phenyl)-nonanediamide]	only modest degradation of HDAC1	did not increase H3K56ac levels greater than the DMSO control	
Cc1ncsc1-c1ccc(CNC(=O)[C@@H]2C[C@@H](O)CN2C(=O)[C@@H](NC(=O)CCCCCCCC(=O)Nc2ccc(C(=O)Nc3cc(-c4cccs4)ccc3N)cc2)C(C)(C)C)cc1 [Compound 18, N1-(4-((2-Amino-5-(thiophen-2-yl)phenyl)carbamoyl)phenyl)-N9-((S)-1-((2S,4R)-4-hydroxy-2-((4-(4-methylthiazol-5-yl)benzyl)-carbamoyl)pyrrolidin-1-yl)-3,3-dimethyl-1-oxobutan-2-yl)-nonanediamide]	did not result in enhanced degradation potency of HDAC1/2		did not result in enhanced degradation potency of HDAC1/2
Cc1ncsc1-c1ccc(CNC(=O)[C@@H]2C[C@@H](O)CN2C(=O)[C@@H](NC(=O)CCCCCCCCCCC(=O)Nc2ccc(C(=O)Nc3cc(-c4cccs4)ccc3N)cc2)C(C)(C)C)cc1 [Compound 19, N1-(4-((2-Amino-5-(thiophen-2-yl)phenyl)carbamoyl)phenyl)-N12-((S)-1-((2S,4R)-4-hydroxy-2-((4-(4-methylthiazol-5-yl)benzyl)-carbamoyl)pyrrolidin-1-yl)-3,3-dimethyl-1-oxobutan-2-yl)-dodecanediamide]	did not result in enhanced degradation potency of HDAC1/2		did not result in enhanced degradation potency of HDAC1/2
Cc1ncsc1-c1ccc(CNC(=O)[C@@H]2C[C@@H](O)CN2C(=O)[C@@H](NC(=O)CCCCCCCCCC(=O)Nc2ccc(C(=O)Nc3ccccc3N)cc2)C(C)(C)C)cc1 [Compound 4, N1-(4-((2-Aminophenyl)carbamoyl)phenyl)-N11-((S)-1-((2S,4R)-4-hydroxy-2-((4-(4-methylthiazol5-yl)benzyl)carbamoyl)pyrrolidin-1-yl)-3,3-dimethyl-1-oxobutan-2-yl)undecanediamide]	directly comparable to those of the 12-atom linker 1	increased H3K56ac levels to the same degree as the 12-atom linker 1	
CC(=O)NC(C(=O)N1C[C@H](O)C[C@H]1C(=O)NCc1ccc(-c2scnc2C)cc1OCCCCNC(=O)CCCCC(=O)Nc1ccc(C(=O)Nc2ccccc2N)cc1)C(C)(C)C (stereo in doubt) [Compound 23, N1-(4-(2-(((2S,4R)-1-((S)-2-Acetamido-3,3-dimethylbutanoyl)-4-hydroxypyrrolidine-2-carboxamido)methyl)-5-(4-methylthiazol-5-yl)phenoxy)butyl)-N6-(4-((2-aminophenyl)carbamoyl)phenyl)-adipamide]	only modest degradation of HDAC1	did not increase H3K56ac levels greater than the DMSO control	

Source: PMC9014412 (Journal of medicinal chemistry, 2022)
